How the values were obtained:
[1] = test system: Human fibrosarcoma HT-1080 tumor tissue homogenate; format: biochemical; conditions: for Activation Efficiencies (%): Human fibrosarcoma HT-1080 tumor tissue homogenate (30 μg/ml), 1 mg/ml compound
In short: (§1)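 Incubation used 37° C, pH6.0 and a 100 μg tissue homogenate as the protease source. Compounds went in at 1 mg/ml, and their activation was compared within the same tissue.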

4T1 cells = experiment: BALB/C mice model for tumor metastasis (4T1, lung metastases); format: in vivo; conditions: for Inhibitory effect on tumor metastasis, in words: compared with parent drug group and control group
Procedure: (§2) 1) 4T1 cells were purchased from American type culture collection (ATCC) and identified according the specification provided by ATCC. Cells were cultivated in DMEM culture solution containing 10% fetal bovine serum at 37° C. and 5% CO2. The cells were passaged for every three days and cells within the 15th passage were used.
2) Production of tumor metastasis. 10^6 […] were subcutaneously injected to the back of the BALB/C mice. Mice were randomly grouped after the tumor grew to about 1.5 cm. The subcutaneous tumor was removed by surgery and drug treatment began. Mice were killed after anesthesia on day 27. The whole lung was taken out and put into Bouin's solution for staining. The number of the tumor metastasized to lung was counted with anatomical microscope.
(§3) The control group was administered by physiological saline. Drugs were administered once for every three days for 4 times.
as §3
According to the clinical application of B1, B2, B3 and B4, drugs were intravenously injected (IV). […] The control group was administered by physiological saline. Drugs were administered once for every three days for 4 times.
According to the clinical application of D1, D2, D3 and D4, drugs were intravenously injected (IV). […] The control group was administered by physiological saline. Drugs were administered once for every three days for 4 times.

BALB/C mice = experiment: Maximum tolerated dose (MTD) / acute toxicity by single intravenous injection; conditions: for Behaviors and death observed: BALB/C mice receiving 90 mg/kg injection; for MTD (maximum tolerated dose): intravenous injection, one time
tumor tissue homogenates = format: biochemical
In short: as §1

[2] = Solubility / formulation test in solvent 1 and solvent 2; format: physicochemical; conditions: for Concentration achieved, completely dissolved in both solvent 1 and solvent 2: solvent 1 injectable water
Procedure: In Table 11, AAN, AANL and AANK indicate the linkage formed by small peptides in the compounds, A is Ala, N is Asn, L is Leu and K is Lys. […] The dissolution concentration is 10 mg/ml.
B1, B2, B3 and B4 and various control compounds were dried under vacuum, sterilized via gas sterilization, and separately packing in a sterile room. Before animal test, B1, B2, B3 and B4 were dissolved by solvent 1 (injectable water) or solvent 2 (30% alcohol, 70% injectable water) and diluted by injectable water to the desired concentration in sterile room. […] Change in solubility may greatly affect the formulation scheme of a drug.
D1, D2, D3, D4 and various control compounds were dried under vacuum, sterilized via gas sterilization, and separately packing in a sterile room. […] Change in solubility may greatly affect the formulation scheme of a drug.

[3] = test system: Human prostate cancer PC-3 cells / Panc-1 cells; experiment: Tumor treatment in nude mice (PC-3 cells purchased, Panc-1 cells injected; Examples 22, 32, 42); format: in vivo; conditions: for Inhibition on tumor growth, in words: compared with parent drug group (same molar concentration) and control group; for Size of tumor (mm^3) Day 10 / inhibitory rate on tumor Day 10 / Size of tumor (mm^3) Day 24 / inhibitory rate on tumor Day 24: nude mice, IV once weekly for four weeks, Paclitaxel 8 mg/kg
Procedure: as §2, with “Human prostate cancer PC-3” for “4T1”
2) Production of tumor. 5×10^6Panc-1 cells were subcutaneously injected to the back of the nude mice. Mice were randomly grouped after the tumor reached at least 100 mm^3. Then treatment began and the day on which the treatment began was day 1.
The control group was administered by physiological saline. Drugs were administered once weekly for four weeks.
According to the clinical application of B1, B2, B3 and B4, drugs were intravenously injected (IV). […] The control group was administered by physiological saline. Drugs were administered once weekly for four weeks.

[4] = day 27, IV once every three days for 4 times, E1-E4 15 mg/kg, mitomycin 1 mg/kg
[5] = lung metastases counted on day 27, IV once every three days for 4 times, E1-E4 15 mg/kg, mitomycin 1 mg/kg
[6] = 4T1, BALB/C mice, lung, day 27, IV every three days for 4 times, S1′-S4′ 12 mg/kg, Paclitaxel 4 mg/kg
[7] = Table 28, BALB/C mice, 4T1, lung metastases day 27, IV every three days for 4 times, A1-A4 12 mg/kg, Paclitaxel 4 mg/kg
[8] = single intravenous injection, 125 mg/kg, 10 BALB/C mice per group
[9] = single intravenous injection, 150 mg/kg, 10 BALB/C mice per group
[10] = single intravenous injection, 175 mg/kg, 10 BALB/C mice per group
[11] = single intravenous injection, 200 mg/kg, 10 BALB/C mice per group

COCCOCCOCCOCCOCCOCC(=O)N[C@H](C)C(=O)N[C@H](C)C(=O)N[C@H](CC(N)=O)C(=O)Nc1ccc(COC(=O)N2[C@H]3[C@@H]2CN2C4=C(C(=O)C(N)=C(C)C4=O)[C@H](COC(N)=O)[C@]32OC)cc1 [Compound E2]
Activation ratio (%) in homogenates from different tumor tissues ([1]; Human fibrosarcoma HT-1080, 37° C., 1 mg/ml, 100 μg acidized homogenate): 85.7% | Inhibitory effect on tumor metastasis, in words (4T1 cells): greatly improved | Inhibitory rate on metastasis (4T1 cells; [4]): 94.1% | Number of metastasized tumor (4T1 cells; [5]): 8 ± 7 | Mortality rate (%) (BALB/C mice; 50 mg/kg single IV injection, 10 BALB/C mice): 0% | Number of dead animal (BALB/C mice; 50 mg/kg single IV injection, 10 BALB/C mice, observed 17 days): 0 | Mortality rate (%) (BALB/C mice; 70 mg/kg single IV injection, 10 BALB/C mice): 0% | Number of dead animal (BALB/C mice; 70 mg/kg single IV injection, 10 BALB/C mice, observed 17 days): 0 | Mortality rate (%) (BALB/C mice; 90 mg/kg single IV injection, 10 BALB/C mice): 0% | Number of dead animal (BALB/C mice; 90 mg/kg single IV injection, 10 BALB/C mice, observed 17 days): 0 | Mortality rate (%) (BALB/C mice; 110 mg/kg single IV injection, 10 BALB/C mice): 10% | Number of dead animal (BALB/C mice; 110 mg/kg single IV injection, 10 BALB/C mice, observed 17 days): 1 | Behaviors and death observed (BALB/C mice): no pilo-erection, hair tousle and lackluster, lethargy, stoop, irritable reaction and death

CO[C@@]12[C@H](COC(N)=O)C3=C(C(=O)C(C)=C(N)C3=O)N1C[C@@H]1N[C@@H]12 [mitomycin, reference compound]
Inhibitory rate on metastasis (4T1 cells; [4]): 5.9% | Number of metastasized tumor (4T1 cells; [5]): 128 ± 25 | Mortality rate (%) (BALB/C mice; 6 mg/kg single IV injection, 10 BALB/C mice): 0% | Number of dead animal (BALB/C mice; 6 mg/kg single IV injection, 10 BALB/C mice, observed 17 days): 0 | Mortality rate (%) (BALB/C mice; 7 mg/kg single IV injection, 10 BALB/C mice): 10% | Number of dead animal (BALB/C mice; 7 mg/kg single IV injection, 10 BALB/C mice, observed 17 days): 1 | Mortality rate (%) (BALB/C mice; 8 mg/kg single IV injection, 10 BALB/C mice): 40% | Number of dead animal (BALB/C mice; 8 mg/kg single IV injection, 10 BALB/C mice, observed 17 days): 4 | Mortality rate (%) (BALB/C mice; 9 mg/kg single IV injection, 10 BALB/C mice): 90% | Number of dead animal (BALB/C mice; 9 mg/kg single IV injection, 10 BALB/C mice, observed 17 days): 9

CCCCCOC(=O)Nc1nc(=O)n([C@@H]2O[C@H](C)[C@@H](OC(=O)OCc3ccc(NC(=O)[C@H](CC(N)=O)NC(=O)[C@H](C)NC(=O)[C@H](C)NC(=O)CCCCCCC(=O)NO)cc3)[C@H]2O)cc1F [Compound S3, 4-N—(N—(N—(N-(8-(N-hydroxylamino)-1,8-octandioic acid-1-monoacyl)-L-alanyl)-L-alanyl)-L-asparaginyl)-amino benzyl alcohol-capecitabine-carbonic acid diester]
Activation efficiency by tumor tissue, in words (tumor tissue homogenates): very high activation efficiency | Activation Efficiencies (%) [1]: 94.9%

4-N—(N—(N—(N-(6-maleimido caproyl)-L-alanyl)-L-alanyl)-L-asparaginyl)-amino benzyl alcohol-MMAE-carbamate [Compound S6]
Activation efficiency by tumor tissue, in words (tumor tissue homogenates): relatively low activation efficiency | Activation Efficiencies (%) [1]: 24.3%

COCCOCCOCCOCCOCCOCC(=O)N[C@H](C)C(=O)N[C@H](C)C(=O)N[C@H](CC(N)=O)C(=O)Nc1ccc(COC(=O)OC(C(=O)OC2C[C@@]3(O)[C@@H](OC(=O)c4ccccc4)[C@H]4[C@](C)(C(=O)[C@H](OC(C)=O)C(=C2C)C3(C)C)[C@@H](O)CC2OC[C@]24OC(C)=O)[C@@H](NC(=O)c2ccccc2)c2ccccc2)cc1 (some centres unmarked) [S2′]
solubility in Solvent 1 ([2]; Solvent 1 injectable water, dissolution concentration 10 mg/ml): soluble | solubility in Solvent 2 ([2]; Solvent 2: 50% injectable water, 45%-49% propanediol, 1%-5% Tween80, dissolution concentration 10 mg/ml): soluble | Concentration achieved, completely dissolved in both solvent 1 and solvent 2 ([2]; solvent 2 50% injectable water, 42%-49% propanediol, 1%-8% Tween80): 10000 µg/mL | Inhibitory rate on metastasis (4T1 cells; [6]): 94.1% | Number of metastasized tumor (4T1 cells; [6]): 8 ± 7 | Inhibitory effect on tumor metastasis, in words (4T1 cells): greatly improved | Behaviors and death observed (BALB/C mice): no pilo-erection, hair tousle and lackluster, lethargy, stoop, irritable reaction and death | MTD (maximum tolerated dose) (BALB/C mice; BALB/C mice): about 90 mg/kg | Mortality rate (%) (BALB/C mice; BALB/C mice, single iv, 125 mg/kg): 0% | Number of dead animal (BALB/C mice; BALB/C mice, single iv, 125 mg/kg, 10 animals): 0 | Mortality rate (%) (BALB/C mice; BALB/C mice, single iv, 150 mg/kg): 0% | Number of dead animal (BALB/C mice; BALB/C mice, single iv, 150 mg/kg, 10 animals): 0 | Mortality rate (%) (BALB/C mice; BALB/C mice, single iv, 175 mg/kg): 0% | Number of dead animal (BALB/C mice; BALB/C mice, single iv, 175 mg/kg, 10 animals): 0 | Mortality rate (%) (BALB/C mice; BALB/C mice, single iv, 200 mg/kg): 10% | Number of dead animal (BALB/C mice; BALB/C mice, single iv, 200 mg/kg, 10 animals): 1 | Inhibition on tumor growth, in words [3]: greatly improved | Size of tumor (mm^3) Day 10 ([3]; S1′-S4′ 24 mg/kg): 60.17 ± 30.26 mm^3 | inhibitory rate on tumor Day 10 ([3]; S1′-S4′ 24 mg/kg): 36.4% | Size of tumor (mm^3) Day 24 ([3]; S1′-S4′ 24 mg/kg): 42.39 ± 62.24 mm^3 | inhibitory rate on tumor Day 24 ([3]; S1′-S4′ 24 mg/kg): 83.01%

COc1cccc2c1C(=O)c1c(O)c3c(c(O)c1C2=O)C[C@@](O)(C(C)=O)C[C@@H]3O[C@H]1C[C@H](NC(=O)OCc2ccc(NC(=O)[C@H](CC(N)=O)NC(=O)[C@H](C)NC(=O)[C@H](C)NC(=O)CCCCCN3C(=O)C=CC3=O)cc2)[C@H](O)[C@H](C)O1 [Compound S5, 4-N—(N—(N—(N-(6-maleimidocaproyl)-L-alanyl)-L-alanyl)-L-asparaginyl)-amino benzyl alcohol-daunorubicin-carbamate]
Activation Efficiencies (%) [1]: 98.4%

COCCOCCOCCOCCOCCOCC(=O)NCCCC[C@H](NC(=O)COCCOCCOCCOCCOCCOC)C(=O)N[C@H](C)C(=O)N[C@H](C)C(=O)N[C@H](CC(N)=O)C(=O)Nc1ccc(COC(=O)OC(C(=O)OC2C[C@@]3(O)[C@@H](OC(=O)c4ccccc4)[C@H]4[C@](C)(C(=O)[C@H](OC(C)=O)C(=C2C)C3(C)C)[C@@H](O)CC2OC[C@]24OC(C)=O)[C@@H](NC(=O)c2ccccc2)c2ccccc2)cc1 (some centres unmarked) [Compound A2]
solubility in Solvent 1 ([2]; solvent 1 (injectable water), Table 22, Paclitaxel series): soluble | Concentration achieved, completely dissolved in both solvent 1 and solvent 2 ([2]; solvent 2 45% alcohol, 55% injectable water): 10000 µg/mL | solubility in Solvent 2 ([2]; solvent 2 (45% alcohol, 55% injectable water), Table 22, Paclitaxel series): soluble | Solubility in water, in words ([2]; water): can directly dissolve in water | Inhibitory rate on metastasis (4T1 cells; [7]): 93.9% | Number of metastasized tumor (4T1 cells; [7]): 9 ± 5 | Inhibitory effect on tumor metastasis, in words (4T1 cells): greatly improved | Behaviors and death observed (BALB/C mice): no pilo-erection, hair tousle and lackluster, lethargy, stoop, irritable reaction and death | MTD (maximum tolerated dose) (BALB/C mice; BALB/C mice): about 90 mg/kg | Mortality rate (%) (BALB/C mice; [8]): 10% | Number of dead animal (BALB/C mice; [8]): 2 | Mortality rate (%) (BALB/C mice; [9]): 0% | Number of dead animal (BALB/C mice; [9]): 0 | Mortality rate (%) (BALB/C mice; [10]): 0% | Number of dead animal (BALB/C mice; [10]): 0 | Mortality rate (%) (BALB/C mice; [11]): 0% | Number of dead animal (BALB/C mice; [11]): 0 | Size of tumor (mm^3) Day 10 ([3]; Table 26, A1-A4 24 mg/kg): 55.19 ± 56.2 mm^3 | inhibitory rate on tumor Day 10 ([3]; Table 26, A1-A4 24 mg/kg): 81.3% | Size of tumor (mm^3) Day 24 ([3]; Table 26, A1-A4 24 mg/kg): 44.43 ± 47.9 mm^3 | inhibitory rate on tumor Day 24 ([3]; Table 26, A1-A4 24 mg/kg): 88.3% | Inhibition on tumor growth, in words [3]: greatly improved

— patent publication US10682371B2, “Small molecule conjugates specifically activated in tumor microenvironment for targeting and use thereof” (priority 2014, dated 2020)
